Earlier results as cited in patent US6436936B1, “Methods and compositions for treating disorders, using optically pure (+) zopiclone” (Sepracor Inc., priority 1991, dated 2002).

Test system: mice
Settings: reference agents, 3 per group, ten parameters scored, total score <40 of 60 denotes behavioral depression

Structure (SMILES)	ED100 [mg/kg]
CCCC(C)C1(CC)C(=O)NC(=O)NC1=O (stereo not drawn) [pentobarbital]	100
COC(=O)[C@H]1[C@H]2C[C@@H]3c4[nH]c5cc(OC)ccc5c4CCN3C[C@H]2C[C@@H](OC(=O)c2cc(OC)c(OC)c(OC)c2)[C@@H]1OC [reserpine]	50
CCC1(c2ccccc2)CCC(=O)NC1=O (stereo not drawn) [glutethimide]	300
CCCC(C)(COC(N)=O)COC(N)=O [meprobamate]	300
O=C(CCCN1CCC(O)(c2ccc(Cl)cc2)CC1)c1ccc(F)cc1 [haloperidol]	10
CN1C(=O)CN=C(c2ccccc2)c2cc(Cl)ccc21 [diazepam]	50
